Assay results as given in patent US20250304617A1, “COMPOUND, SALT OF COMPOUND, ANTIBODY MODIFICATION REAGENT, METHOD FOR PRODUCING MODIFIED ANTIBODY, AND MODIFIED ANTIBODY” (Kagoshima University, priority 2021, published 2025).

Assay: Examination of stability in DMSO (HPLC purity)
Format: physicochemical
Settings: 20 mg/mL in DMSO
Method: The compound A, the compound B, or the comparative example was dissolved in DMSO at a content of 20 mg/mL, allowed to stand at room temperature or −20° C. for a predetermined time, and analyzed by HPLC.
For the compound A, the compound B, and the comparative example, the ratio of the area of the main peak to the sum of the areas of all peaks (HPLC purity) is shown in Table 1.

[N-]=[N+]=NCCCCC1NONC(C(N)=O)CCCCC(NCCCC(=O)C(Cc2ccccc2)NC(=O)CCCC(=O)ON2C(=O)CCC2=O)C(=O)N1 (stereo not shown) [Comparative example, DSG-αZ34C, reference compound]
HPLC purity (ratio of the area of the main peak to the sum of the areas of all peaks) (room temperature, 0 Hours): 85%
HPLC purity (ratio of the area of the main peak to the sum of the areas of all peaks) (room temperature, 22 Hours): 83%
HPLC purity (ratio of the area of the main peak to the sum of the areas of all peaks) (−20° C., 0 Days): 92%
HPLC purity (ratio of the area of the main peak to the sum of the areas of all peaks) (−20° C., 30 Days): 85%
